Data on eleven compounds can be found in patent US10005741B2, “Therapeutic compounds” (ARIZONA BOARD OF REGENTS ON BEHALF OF ARIZONA STATE …, priority 2014, dated 2018).

pEC50: −log10 of the molar value.

The target in one data set is T1, human RXR (Homo sapiens, UniProt P19793).
T1 construct: expressed in transfected cells; host or cells: HCT-116 cells
T1 sequence (P19793 1-462) 1: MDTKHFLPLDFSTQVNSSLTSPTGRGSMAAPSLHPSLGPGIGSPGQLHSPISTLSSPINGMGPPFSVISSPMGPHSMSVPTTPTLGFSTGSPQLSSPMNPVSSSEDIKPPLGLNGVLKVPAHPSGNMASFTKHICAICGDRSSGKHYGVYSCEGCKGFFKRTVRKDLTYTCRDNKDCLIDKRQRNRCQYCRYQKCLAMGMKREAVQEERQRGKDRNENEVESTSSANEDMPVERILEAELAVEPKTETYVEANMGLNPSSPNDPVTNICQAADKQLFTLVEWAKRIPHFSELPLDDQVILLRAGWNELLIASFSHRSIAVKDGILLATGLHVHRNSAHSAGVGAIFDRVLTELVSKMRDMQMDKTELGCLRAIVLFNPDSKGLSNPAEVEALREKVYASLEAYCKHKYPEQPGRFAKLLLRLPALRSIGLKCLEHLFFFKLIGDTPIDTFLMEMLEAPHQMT
T1 sequence (P19793 1-462) 2: T1 sequence (P19793 1-462) 1
Description: Test A: RXR mammalian two-hybrid luciferase assay in transfected HCT-116 cells. Format: cell-based. The note with it: RXR mammalian two-hybrid system, luciferase reporter, 24 hours treatment, dose-response 1x10^-9 to 0.3x10^-5 M. How it is done: HCT-116 cells were plated overnight at 80,000 cells/well in a 24 well plate and maintained as described above. The cells were co-transfected using a human RXR binding domain (BD) vector, a human RXR activation domain (AD) vector, a luciferase reporter gene containing BD-binding sites and renilla control plasmid. Transfection was achieved via 2 μL/well of Express-IN transfection reagent which was allowed to incubate for 24 hours with the cells. […] The amount of rexinoid activity at each concentration was measured using the same luciferase assay described above, and EC50 values were derived from dose-response curves of ligand concentration versus normalized luciferase activity.
Usually pEC50 stands for the EC50 on a negative log10 scale, so that one unit is a factor of ten. `Cc1cnc(/C=C/C(=O)O)cc1-c1cc2c(cc1C)C(C)(C)CCC2(C)C` [Compound A42] had a pEC50 of 8.43.
The same measure, in the same setting: then `Cc1cc2c(cc1-c1cncc(/C=C/C(=O)O)c1)C(C)(C)CCC2(C)C` [Compound A45, (E)-3-(5-(3,5,5,8,8-pentamethyl-5,6,7,8-tetrahydronaphthalen-2-yl)pyridin-3-yl)acrylic acid], with 6.15; and `Cc1cc2c(cc1-c1nc(/C=C/C(=O)O)ccc1C)C(C)(C)CCC2(C)C` [Compound A46, (E)-3-(5-methyl-6-(3,5,5,8,8-pentamethyl-5,6,7,8-tetrahydronaphthalen-2-yl)pyridin-2-yl)acrylic acid], with 6.52.
For the compound `Cc1cc2c(cc1-n1c(C(F)(F)F)nc3cc(C(=O)O)ccc31)C(C)(C)CCC2(C)C` [Compound A48], the pEC50 was 7.70.

Tested on in another data set: not given
Test: not given
Details: not given
The melting point is the temperature, or range, at which the solid turns liquid. Consider `CCN(c1ncc(C(=O)O)cn1)c1cc2c(cc1C)C(C)(C)CCC2(C)C` [Compound A57, 2-(ethyl(3,5,5,8,8-pentamethyl-5,6,7,8-tetrahydronaphthalen-2-yl)amino)pyrimidine-5-carboxylic acid], for which the melting point is 231.9 to 233.1 °C.
`CCN(c1ccc2c(c1)C(C)(C)CCC2(C)C)c1cnc(C(=O)O)cn1` [Compound A58, 5-(ethyl(5,5,8,8-tetramethyl-5,6,7,8-tetrahydronaphthalen-2-yl)amino)pyrazine-2-carboxylic acid] displayed a melting point of 213.1 to 214.4 °C.
The compound `CCN(c1cnc(C(=O)O)cn1)c1cc2c(cc1C)C(C)(C)CCC2(C)C` [Compound A59, 5-(ethyl(3,5,5,8,8-pentamethyl-5,6,7,8-tetrahydronaphthalen-2-yl)amino)pyrazine-2-carboxylic acid] displayed a melting point of 203.6 to 205.1 °C.
The same measure, in the same setting: in the case of `CCN(c1ccc(C(=O)O)c(F)c1)c1cc2c(cc1C)C(C)(C)CCC2(C)C` [Compound A60, 4-(ethyl(3,5,5,8,8-pentamethyl-5,6,7,8-tetrahydronaphthalen-2-yl)amino)-2-fluorobenzoic acid] it was 241.4 to 243.8 °C; in that of `CCN(c1ccc(C(=O)O)cc1)c1cc2c(cc1C)C(C)(C)CCC2(C)C` [Compound A61, 4-(ethyl(3,5,5,8,8-pentamethyl-5,6,7,8-tetrahydronaphthalen-2-yl)amino)benzoic acid], 252.4 to 256.8 °C.
On the same count and under the same terms, then `CCN(c1ccc(C(=O)O)c(F)c1)c1ccc2c(c1)C(C)(C)CCC2(C)C` [Compound A62, 4-(ethyl(5,5,8,8-tetramethyl-5,6,7,8-tetrahydronaphthalen-2-yl)amino)-2-fluorobenzoic acid], with 252.4 to 256.8 °C; and `CCN(c1ccc(C(=O)O)cc1)c1ccc2c(c1)C(C)(C)CCC2(C)C` [Compound A63, 4-(ethyl(5,5,8,8-tetramethyl-5,6,7,8-tetrahydronaphthalen-2-yl)amino)benzoic acid], with 247.8 to 250.6 °C.
